Source: patent US12102685B2, “Immodulator peptides covalently modified with small molecules” (priority 2020, dated 2024)
Marks after values point to notes of the source that are not given here. Each block holds one molecule with its values, some of them ahead of it. Peptide text beside a SMILES is read from it.

Assays:
[1] = FITC-PI(4)P1 binding to plate-bound peptide with calcium (x9A)
Protocol: Immodulator peptides IM1, IM3 and IM5 (400 ng/well) in PBS were bound to streptavidin-coated 96-well plates at room temperature for 60 minutes, in the presence or absence of 500 uM calcium chloride. Each well also received 200 ng cold PPI plus 10 ng FITC-labeled PI(4,5)P2 or PI(4)P1. The tables below show the relative fluorescence (with/without calcium background) expressed as a percentage of the highest binder, FITC-PI(4,5)P2+cold PI(3,5)P2, which was 2,496 fluorescence units. Background binding without calcium was, in all cases, 200-300 fluorescence units.

full-length huNur77 = target: T1, full-length huNur77 (Homo sapiens, UniProt P22736); assay: Binding to full-length huNur77 (x3C); conditions: 333 ng/well labelled peptide
T1 construct: purchased Abcam, Cambridge, MA
Protocol: 400 ng/well recombinant Nur77 (Abcam, Cambridge, MA) was adsorbed to wells of a 96-well plate for 90 minutes at RT, then blocked with 200 uL 1% BSA in PBS buffer overnight. Plate was washed and 333 ng/well Streptavidin-Alexa 488 conjugate (SA488)-labelled IM3, IM4 or no peptide was added. The plate was incubated for 60 min at room temperature, washed and counted in a standard fluorometer (excitation/emission 485/525 nm). Background (buffer alone) was subtracted.

[2] = target: T2, DNA-binding domain (DBD) of RXR-alpha (Homo sapiens, UniProt P19793); assay: Binding to RXRa-DBD with or without ferric iron (x3B)
T2 construct: purchased Abcam, Cambridge, MA
T2 sequence (P19793 111-228): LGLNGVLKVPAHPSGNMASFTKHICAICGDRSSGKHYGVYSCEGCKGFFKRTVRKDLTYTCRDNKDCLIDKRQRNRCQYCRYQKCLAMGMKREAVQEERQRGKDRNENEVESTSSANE
Protocol: Experiment x3B. Binding of immodulator peptides to DNA-binding domain (DBD) of RXR-alpha, with or without ferric iron. 100 ng/well recombinant RXRa-DBD (Abcam, Cambridge, MA) was adsorbed to wells of a 96-well plate for 60 minutes at RT, then blocked with 200 uL 1% BSA in PBS buffer overnight. Plate was washed and 800 ng/well Streptavidin-Alexa 488 conjugate (SA488)-labelled IM peptide was added, with or without ferric chloride (5 uM) or 5-fold excess RXRa-DBD. The plate was incubated for 2 hours at room temperature, washed and counted in a standard fluorometer (excitation/emission 485/525 nm).

[3] = FITC-PI(4,5)P2 binding at pH5.2 with metals and cold PPI (x9D)
Protocol: To a streptavidin-coated 96-well plate, 400 ng peptide IM3 or IM5 were bound per well. Each well received 100 uL of sodium acetate buffer pH5.2 containing 500 uM EDTA, Calcium Chloride, Zinc Chloride or Ferric Chloride. Each well additionally contained 50 ng FITC-PI(4,5)P2 plus 2 ug of either cold PI(3,4)P2, PI(4,5)P2, PI(3,5)P2 or buffer. All assays were done in sextuplicate. After incubation at room temperature for 60 mins, wells were washed and counted in a fluorometer set at FITC excitation/emmission wavelengths.

[4] = Competition binding assay to metal-charged NTA-coated plates (x2B b); conditions: PBS on calcium = 100
Protocol: NTA-metal-affinity fluorescence assay was performed using 96-well NTA-metal-coated plates readily available from commercial sources such as Qiagen (Germantown, MD). NTA was charged with ferrous or ferric iron, zinc, copper, calcium, vanadium, ruthenium, cobalt, titanium, manganese or other metals. 400 ng of FITC-labeled immodulator peptide (or biotinylated immodulator peptide complexed to Alexa-488-labeled streptavidin) in PBS buffer was added per plate. After incubation at room temperature for 60 minutes, excess peptide was washed off and peptide was detected by measuring fluorescence (excitation 490 nm, emmission 525 nm) in a fluorometer. • (a) Using FITC-labeled IM3 peptide (1 ug/well) in the fluorescent binding assay: • EDTA-treated control: 2,251±1,186 • Ferrous iron: 170,441±11,264 (p<0.001)* • Copper: 13,644±5566 (p<0.05)* • Calcium: 48,822±11,990 (p<0.01)* • *p values are relative to EDTA-treated control • (b) Competition binding assay to ferrous iron, calcium, copper and zinc-charged NTA-coated plates using FITC-labeled IM3 peptide (0.5 uM) and 8× (4 uM) unlabelled competitor peptides IM3N1, IM3N2 (*all comparisons to PBS control are p<0.01); # fluorescent value of binding to […] was set at 100.

T1 sequence (P22736 whole entry): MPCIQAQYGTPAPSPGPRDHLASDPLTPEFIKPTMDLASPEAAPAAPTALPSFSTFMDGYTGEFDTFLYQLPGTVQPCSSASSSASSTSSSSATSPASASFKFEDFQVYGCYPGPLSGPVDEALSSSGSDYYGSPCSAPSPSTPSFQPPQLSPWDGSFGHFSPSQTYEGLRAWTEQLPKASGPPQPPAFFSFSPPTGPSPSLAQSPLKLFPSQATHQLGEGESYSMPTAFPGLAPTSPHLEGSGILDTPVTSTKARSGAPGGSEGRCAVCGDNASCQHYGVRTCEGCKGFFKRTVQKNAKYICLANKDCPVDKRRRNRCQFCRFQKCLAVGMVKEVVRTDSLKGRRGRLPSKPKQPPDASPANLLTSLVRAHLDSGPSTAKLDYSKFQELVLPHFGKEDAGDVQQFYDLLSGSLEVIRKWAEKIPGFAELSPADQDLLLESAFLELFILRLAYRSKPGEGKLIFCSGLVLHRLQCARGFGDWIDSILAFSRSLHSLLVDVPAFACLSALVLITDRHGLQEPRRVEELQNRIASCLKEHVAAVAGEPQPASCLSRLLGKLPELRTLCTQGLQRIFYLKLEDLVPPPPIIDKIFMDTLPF

- relative fluorescence, FITC-PI(4)P1 bound ([1]; cold PPI: 3,4,5-P3): 0.1 percentage of the highest binder
- relative fluorescence, FITC-PI(4)P1 bound ([1]; cold PPI: 3,4-P2): 2.6 percentage of the highest binder
- relative fluorescence, FITC-PI(4)P1 bound ([1]; cold PPI: 3,5-P2): 4.3 percentage of the highest binder
- relative fluorescence, FITC-PI(4)P1 bound ([1]; cold PPI: 3-P1): 3.1 percentage of the highest binder
- relative fluorescence, FITC-PI(4)P1 bound ([1]; cold PPI: 4,5-P2): 0.8 percentage of the highest binder
- relative fluorescence, FITC-PI(4)P1 bound ([1]; cold PPI: 4-P1): 2.7 percentage of the highest binder
- relative fluorescence, FITC-PI(4)P1 bound ([1]; cold PPI: 5-P1): 0.5 percentage of the highest binder
- relative fluorescence, FITC-PI(4)P1 bound ([1]; cold PPI: None): 1.6 percentage of the highest binder
Molecule: CSCC[C@H](NC(=O)[C@H](CO)NC(=O)[C@@H](NC(=O)[C@H](CCC(=O)O)NC(=O)[C@H](CS)NC(=O)[C@H](CCC(N)=O)NC(=O)[C@H](CCCNC(=N)N)NC(=O)[C@H](CO)NC(=O)[C@H](Cc1c[nH]cn1)NC(=O)[C@H](Cc1ccc(O)cc1)NC(=O)[C@H](Cc1ccccc1)NC(=O)CNC(=O)[C@H](CC(N)=O)NC(=O)[C@@H](N)CCCCN)[C@@H](C)O)C(=O)N[C@@H](CC(=O)O)C(=O)NCC(=O)N[C@@H](CCC(=O)O)C(=O)N[C@@H](C)C(=O)NCC(=O)N[C@@H](CC(C)C)C(=O)N[C@@H](CS)C(=O)N[C@@H](Cc1c[nH]c2ccccc12)C(=O)O [IM1] (H-KNGFYHSRQCETSMDGEAGLCW-OH; N-terminus and C-terminus assumed)

- fluorescence (full-length huNur77; Nur77 400 ng/well): 70 ± 48
- fluorescence (full-length huNur77; no Nur77 adsorbed): 112 ± 24
Molecule: CC(C)C[C@H](NC(=O)[C@H](C)NC(=O)[C@@H]1CCCN1C(=O)[C@H](Cc1c[nH]cn1)NC(=O)[C@H](CS)NC(=O)[C@H](CCC(N)=O)NC(=O)[C@H](CCCCN)NC(=O)[C@@H]1CCCN1C(=O)[C@H](Cc1c[nH]cn1)NC(=O)[C@H](Cc1ccccc1)NC(=O)[C@H](CC(N)=O)NC(=O)CNC(=O)[C@H](CC(N)=O)NC(=O)[C@@H](N)CCCNC(=N)N)C(=O)N[C@@H](CC(=O)O)C(=O)NCC(=O)N[C@@H](CCC(N)=O)C(=O)N[C@@H](CCCNC(=N)N)C(=O)NCC(=O)N[C@@H](CCCCN)C(=O)N[C@@H](CS)C(=O)N[C@@H](Cc1c[nH]c2ccccc12)C(=O)O [IM4] (H-RNGNFHPKQCHPALDGQRGKCW-OH; N-terminus and C-terminus assumed)

- fluorescence ([2]; 100 ng/well RXRa-DBD, no FeCl3, no excess RXRa-DBD): 228.0 ± 44.9
- fluorescence ([2]; FeCl3 5 uM, 5X excess RXRa-DBD): 303.0 ± 68.3
- fluorescence ([2]; FeCl3 5 uM, no excess RXRa-DBD): 552.7 ± 86.8^
- relative fluorescence, FITC-PI(4)P1 bound ([1]; cold PPI: 3,4,5-P3): 1.2 percentage of the highest binder
- relative fluorescence, FITC-PI(4)P1 bound ([1]; cold PPI: 3,4-P2): 1.7 percentage of the highest binder
- relative fluorescence, FITC-PI(4)P1 bound ([1]; cold PPI: 3,5-P2): 1.3 percentage of the highest binder
- relative fluorescence, FITC-PI(4)P1 bound ([1]; cold PPI: 3-P1): 0.9 percentage of the highest binder
- relative fluorescence, FITC-PI(4)P1 bound ([1]; cold PPI: 4,5-P2): 1.8 percentage of the highest binder
- relative fluorescence, FITC-PI(4)P1 bound ([1]; cold PPI: 4-P1): 0.8 percentage of the highest binder
- relative fluorescence, FITC-PI(4)P1 bound ([1]; cold PPI: 5-P1): 0.4 percentage of the highest binder
- relative fluorescence, FITC-PI(4)P1 bound ([1]; cold PPI: None): 2.1 percentage of the highest binder
- fluorescence, FITC-PI(4,5)P2 bound ([3]; Buffer, Calcium): 234 ± 34
- fluorescence, FITC-PI(4,5)P2 bound ([3]; Buffer, EDTA): 88 ± 23
- fluorescence, FITC-PI(4,5)P2 bound ([3]; Buffer, Ferric Iron): 1,111 ± 167
- fluorescence, FITC-PI(4,5)P2 bound ([3]; Buffer, Zinc): 236 ± 55
- fluorescence, FITC-PI(4,5)P2 bound ([3]; Cold PI(3,4)P2, Calcium): 205 ± 50
- fluorescence, FITC-PI(4,5)P2 bound ([3]; Cold PI(3,4)P2, EDTA): 150 ± 81
- fluorescence, FITC-PI(4,5)P2 bound ([3]; Cold PI(3,4)P2, Ferric Iron): 2,150 ± 420
- fluorescence, FITC-PI(4,5)P2 bound ([3]; Cold PI(3,4)P2, Zinc): 151 ± 51
- fluorescence, FITC-PI(4,5)P2 bound ([3]; Cold PI(3,5)P2, Calcium): 489 ± 146
- fluorescence, FITC-PI(4,5)P2 bound ([3]; Cold PI(3,5)P2, EDTA): 205 ± 71
- fluorescence, FITC-PI(4,5)P2 bound ([3]; Cold PI(3,5)P2, Ferric Iron): 2,026 ± 176
- fluorescence, FITC-PI(4,5)P2 bound ([3]; Cold PI(3,5)P2, Zinc): 353 ± 29
- fluorescence, FITC-PI(4,5)P2 bound ([3]; Cold PI(4,5)P2, Calcium): 163 ± 80
- fluorescence, FITC-PI(4,5)P2 bound ([3]; Cold PI(4,5)P2, EDTA): 81 ± 95
- fluorescence, FITC-PI(4,5)P2 bound ([3]; Cold PI(4,5)P2, Ferric Iron): 1,447 ± 304
- fluorescence, FITC-PI(4,5)P2 bound ([3]; Cold PI(4,5)P2, Zinc): 104 ± 21
Molecule: CC[C@H](C)[C@H](NC(=O)CNC(=O)[C@H](CCCNC(=N)N)NC(=O)[C@H](CCCCN)NC(=O)[C@H](CCCNC(=N)N)NC(=O)CNC(=O)[C@H](CCCNC(=N)N)NC(=O)[C@H](CO)NC(=O)[C@@H]1CCCN1C(=O)[C@H](CCCCN)NC(=O)[C@H](CS)NC(=O)[C@H](CCC(N)=O)NC(=O)[C@H](CCCCN)NC(=O)[C@H](CCCNC(=N)N)NC(=O)[C@H](CCCCN)NC(=O)[C@H](Cc1ccc(O)cc1)NC(=O)[C@H](Cc1ccccc1)NC(=O)CNC(=O)[C@H](CCCCN)NC(=O)[C@@H](N)CCCNC(=N)N)C(=O)N[C@@H](CS)C(=O)N[C@@H](Cc1c[nH]c2ccccc12)C(=O)O [IM5] (H-RKGFYKRKQCKPSRGRKRGICW-OH; N-terminus and C-terminus assumed)

Molecule: RGVTEDYLRLETLVQKVVSKGFYKKKQCRPSKGRKRGFCW [IM3N1]
- FITC-IM3 fluorescence with competitor ([4]; Calcium, 0.5 uM FITC-IM3, 8x (4 uM) unlabelled competitor): 14.6 ± 1.4*
- FITC-IM3 fluorescence with competitor ([4]; Copper, 8x (4 uM) unlabelled competitor): 9.2 ± 1.5*
- FITC-IM3 fluorescence with competitor ([4]; Ferrous iron, 8x (4 uM) unlabelled competitor): 20.4 ± 1.0*
- FITC-IM3 fluorescence with competitor ([4]; Zinc, 8x (4 uM) unlabelled competitor): 15.7 ± 1.3*
